# Experimental data from patent publication US12569480B2, “Methods of treating fibrosis using compounds that promote glucose oxidation” (IMBRIA PHARMACEUTICALS, INC., priority 2019, dated 2026).
# Legend:
# [1] = test system: TAC mice; assay: TAC mice, 6-week minipump treatment: echocardiography; type: in vivo; conditions: in words
# [2] = test system: TAC mice; assay: TAC mice, 6-week minipump treatment: cardiac fibrosis, Masson's trichrome; type: in vivo; conditions: 6 weeks, TMZ 6, NA 2.4, CV-8814 7.5, CV-8972 10 mg/kg/day, TAC control 10.7±1
# [3] = test system: TAC mice; assay: TAC mice, 6-week minipump treatment: left ventricular pressure by Mikro-tip catheter; type: in vivo; conditions: 6 weeks, CV-8972 10 mg/kg/day, TAC control −5697±417
# [4] = test system: TAC mice; assay: TAC mice, 6-week minipump treatment: heart weight and heart weight/body weight; type: in vivo; conditions: in words, 6 weeks, NA 2.4 mg/kg/day
# [5] = test system: isolated hearts after ischemia-reperfusion; assay: Ischemia-reperfusion (IR), isolated hearts (Langendorff): cardiac function (left ventricular pressure); design: species or system mice; conditions: in words; TMZ 20 μM; TNF 2 μM each; TNS 20 μM each
# Procedure: FIG. 38 is a schematic of the ischemia-reperfusion (IR) method used to analyze the effects of selected compositions on coronary flow, cardiac function, and infarct size. […] At 20 minutes, ischemia was induced, and coronary flow was analyzed. At 50 minutes, reperfusion was initiated to restore blood flow. At 170 minutes, coronary flow and cardiac function was analyzed, and then the hearts were preserved, sectioned, and infarct size was measured by triphenyltetrazolium chloride (TTC) staining.
# [6] = to the end of the study (6 weeks)
compound,measurement,setting,value
"COc1ccc(CN2CCN(CCO)CC2)c(OC)c1OC [CV-8814, 2-(4-(2,3,4-trimethoxybenzyl)piperazin-1-yl)ethan-1-ol]",EF,[1]; 3-weeks after TAC,significantly increased
same,EF,[1]; [6],protective effect was sustained
same,cardiac fibrosis (fibrotic area to whole heart tissue area),[2],6.6±0.6%
"COc1ccc(CN2CCN(CCOC(=O)c3cccnc3)CC2)c(OC)c1OC [CV-8972, 2-(4-(2,3,4-trimethoxybenzyl)piperazin-1-yl)ethyl nicotinate]",EF,[1]; 3-weeks after TAC,significantly increased
same,EF,[1]; [6],protective effect was sustained
same,−dp/dtm,[3],−4126±339 mm Hg/sec
"O=C(O)c1cccnc1 [NA, nicotinic acid, reference compound]",IVSd,"[1]; TAC mice, NA 2.4 mg/kg/day",decreased IVSd
same,LV mass,"[1]; TAC mice, NA 2.4 mg/kg/day",no effect on LV mass
same,effect on cardiac remodeling,[4],no significant effect on cardiac remodeling
"COc1ccc(CN2CCNCC2)c(OC)c1OC [TMZ, trimetazidine]",cardiac function (LVDP) after IR,[5],prevented a decline in cardiac function
